Assays:
Danio rerio embryo [1] = experiment: LEL larval photomotor response dark phase 120 hpf
Experimental: (§1)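 ZBEscreen: dechorionated Tropical 5D zebrafish embryos were exposed from 4 hpf in 96-well plates (1% DMSO, 28 °C). All compounds were first tested at 100 µM; hits were retested at 0.005-100 µM. Morphology and mortality were scored at 120 hpf and fitted as BMC10 (3-parameter log-logistic, extra risk). The embryonic photomotor response at 24 hpf and the larval photomotor response at 120 hpf are given as lowest effect levels (K-S test, p<0.01). NA = not significant up to 100 µM; NT = not tested.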

Danio rerio embryo [2] = experiment: LEL embryonic photomotor response 24 hpf
Experimental: as §1

Danio rerio embryo [3] = experiment: BMC10 any morphological effect or mortality at 120 hpf; higher = less toxic
HL-60 = experiment: Cell Health Index (toxicity pseudo-probability over dose series) (index 0-1); higher = more cytotoxic / cell stress;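 further: HL-60 cells exposed 4 h at 37 °C to ten threefold dilutions spanning 5 nM to 100 µM, multiparametric flow cytometry features scored by machine-learning classification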

| Compound | LEL larval photomotor response dark phase 120 hpf (Danio rerio embryo [1]) [µM] | LEL embryonic photomotor response 24 hpf (Danio rerio embryo [2]) [µM] | BMC10 any morphological effect or mortality (Danio rerio embryo [3]) [µM] | Cell Health Index (HL-60) |
| --- | --- | --- | --- | --- |
| OC1=CC(OC)=C(C(CC(C2=CC=C(O)C=C2)O3)=O)C3=C1C/C=C(C)/C (centres undefined) [Isoxanthohumol] | > 100 | > 100 | > 100 | 0.183 |
| CCC(=O)c1ccc(F)c([C@@H]2C[C@@H]2NC(=O)Nc2ccc(C#N)cn2)c1O [MIV-150] | > 100 | > 100 | > 100 | 0.306 |
| CC(C)(C)C1=C(O)C(C(C)(C)C)=CC(/C=C(C#N)\C#N)=C1 [Malonoben] | > 100 | 0.14 | > 100 | 0.861 |
| O=C1CCC[C@@H]2[C@H]3CCCN4CCC[C@@H](CN12)[C@@H]34 [Matrine] | > 100 | > 100 | > 100 | 0.14 |
| CC1(C)CC(NC(=O)C(=O)Nc2ccc(Cl)cc2)CC(C)(C)N1 [NBD-556] | 11.1 | 100 | 45.7 | 0.302 |
| CS(=O)(=O)O.CS(=O)(=O)O.N=C(N)Nc1ccc(C(=O)Oc2ccc3cc(C(=N)N)ccc3c2)cc1 [Nafamostat] | > 100 | > 100 | > 100 | 0.422 |
| COc1cc(-c2oc3cc(O)cc(O)c3c(=O)c2O[C@@H]2O[C@H](CO[C@@H]3O[C@@H](C)[C@H](O)[C@@H](O)[C@H]3O)[C@@H](O)[C@H](O)[C@H]2O)ccc1O [Narcissoside] | > 100 | > 100 | > 100 | 0.248 |
| CCC(CC)O[C@@H]1C=C(C(=O)O)C[C@H](N)[C@H]1NC(C)=O [Oseltamivir acid] | > 100 | 0.046 | > 100 | 0.174 |
| CC(=O)c1c(O)cc(O)cc1O.O [Phloroacetophenone] | > 100 | > 100 | > 100 | 0.231 |
| COc1cc(NC(C)CCCN)c2ncccc2c1.O=P(O)(O)O.O=P(O)(O)O (centres undefined) [Primaquine] | > 100 | > 100 | > 100 | 0.352 |
| CC(C)(Sc1cc(C(C)(C)C)c(O)c(C(C)(C)C)c1)Sc1cc(C(C)(C)C)c(O)c(C(C)(C)C)c1 [Probucol] | > 100 | 0.005 | > 100 | 0.134 |
| Oc1cc(O)c2c(c1)O[C@H](c1ccc(O)c(O)c1)[C@H](O)[C@H]2c1c(O)cc(O)c2c1O[C@H](c1ccc(O)c(O)c1)[C@@H](O)C2 [Procyanidin B1] | > 100 | > 100 | > 100 | 0.406 |
| O=c1ccc2cc3ccoc3cc2o1 [Psoralen] | 33.3 | 100 | 29.2 | 0.105 |
| O.O=c1c(O)c(-c2ccc(O)c(O)c2)oc2cc(O)cc(O)c12 [Quercetin] | > 100 | > 100 | > 100 | 0.461 |
| C=C[C@H]1C[N@@]2CC[C@H]1C[C@@H]2[C@@H](O)c1ccnc2ccc(OC)cc12 [Quinidine] | > 100 | > 100 | > 100 | 0.197 |
| FC(F)(F)c1cc(C(F)(F)F)c2ccc3nc(-c4nnco4)cn3c2n1 [RO8191] | 11.1 | 11.1 | 26.9 | 0.274 |
| O=C(Nc1ccccc1F)N[C@H]1N=C(c2ccccc2)c2ccccc2NC1=O [RSV-604] | > 100 | > 100 | > 100 | 0.368 |
| Cc1ccc(C2Nc3ccccc3C(=O)N2c2ccccc2)s1 (centres undefined) [Retro-2] | > 100 | 0.14 | 0.795 | 0.241 |
| O=C(Nc1c(Cl)cncc1Cl)c1ccc(OC(F)F)c(OCC2CC2)c1 [Roflumilast] | 0.14 | 0.015 | > 100 | 0.296 |
| COc1c2c(cc3c1-c1c(cc4c(c1OC)OCO4)CC(C)C(C)C3)OCO2 (centres undefined) [Schisandrin C] | > 100 | 11.1 | 2.06 | 0.61 |
| C/C=C(/C)C(=O)O[C@H]1c2cc(OC)c(OC)c(OC)c2-c2c(cc3c(c2OC)OCO3)C[C@H](C)[C@]1(C)O [Schisantherin B] | > 100 | 100 | 65.9 | 0.365 |
| C[C@H]1CC[C@@]2(OC1)O[C@H]1C[C@H]3[C@@H]4CC[C@@H]5C[C@@H](O[C@@H]6O[C@H](CO)[C@H](O)[C@H](O)[C@H]6O[C@@H]6O[C@H](CO)[C@@H](O)[C@H](O)[C@H]6O)CC[C@]5(C)[C@H]4CC[C@]3(C)[C@H]1[C@@H]2C [Timosaponin AIII] | > 100 | > 100 | > 100 | 0.935 |
| N#C/C(=C\c1ccc(O)c(O)c1)C(=O)NCCCc1ccccc1 [Tyrphostin AG 555] | > 100 | > 100 | 1.13 | 0.494 |
| Ic1cccc(/C=N/Nc2nc(N3CCOCC3)nc(N(c3ccccc3)c3ccccc3)n2)c1 [Vacuolin-1] | > 100 | 33.3 | > 100 | 0.271 |
| Cc1ccc(NC(=O)C(=O)NC2CC(C)(C)NC(C)(C)C2)cc1 [YYA-021] | 33.3 | 100 | > 100 | 0.184 |
| Cc1cc(C)nc(NS(=O)(=O)c2ccc(NC(=S)NC(=O)COc3ccc(Br)cc3Cl)cc2)n1 [ZCL 278] | > 100 | 100 | > 100 | 0.221 |

Reference: the supplement of paper PMC11821682
